Test results: BindingDB's records for doi:10.1021/acs.jmedchem.0c00964 (Philipps-University, 2020)

Target: T1, Orexin/Hypocretin receptor type 1 (Homo sapiens, UniProt O43613)
T1 sequence (O43613 whole entry): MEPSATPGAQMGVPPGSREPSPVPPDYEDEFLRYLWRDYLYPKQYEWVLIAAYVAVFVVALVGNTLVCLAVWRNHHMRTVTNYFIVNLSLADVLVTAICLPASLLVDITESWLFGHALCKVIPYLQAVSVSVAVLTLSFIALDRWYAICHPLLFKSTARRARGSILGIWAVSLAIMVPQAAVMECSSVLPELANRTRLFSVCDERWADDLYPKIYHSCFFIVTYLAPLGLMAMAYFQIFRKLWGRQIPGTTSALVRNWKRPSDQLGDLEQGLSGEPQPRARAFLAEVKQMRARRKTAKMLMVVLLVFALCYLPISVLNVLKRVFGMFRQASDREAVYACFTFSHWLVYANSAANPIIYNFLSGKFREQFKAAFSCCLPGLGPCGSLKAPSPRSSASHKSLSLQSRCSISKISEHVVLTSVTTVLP
Test: Displacement of [3H]-[…] from human orexin 1 receptor expressed in CHO cells incubated for 2 hrs by whole cell radioligand binding assay

With `O=C1NC(=O)C(=Cc2c(OCc3ccccc3F)ccc3ccccc23)C(=O)N1` as the compound, how does the Ki read?
The Ki was 33.1 µM.

`O=C(/C=C/c1cccc(F)c1)N1CCOc2c(cc(-c3cccnc3)cc2OC[C@H]2CCCCO2)C1` was tested. Which Ki did it give?
The Ki was 21.4 µM.

`O=C(c1sc2cccc(F)c2c1Cl)N1CCN(Cc2ccco2)CC1` was tested. Which Ki did it give?
Its Ki is 43.7 µM.

Which Ki does the source give for `O=C1CCCN1c1cccc(C(=O)N(Cc2ccc(F)cc2)C2CC2)c1` here?
Its Ki is 32.4 µM.

How did the Ki turn out when `COc1ccc(C(=O)Oc2cc(=O)n(-c3ccccc3)c3c2CCCC3)cc1` was run?
The Ki was 24.5 µM.
